Assay results published in patent US8563258B2, “Allergy test based on flow cytometric analysis” (Buhlmann Laboratories AG, priority 2007, dated 2013).
Read-outs that look alike come from different tables or passages of the source.

Assays:
basophils [1] = test system: basophils
Description: Peripheral blood leukocytes are isolated from patients' whole blood samples and primed with Stimulation Buffer containing interleukin 3 (IL-3). […] During this activation intracellular compounds containing the transmembrane protein CD63 are fused to the cellular membrane and therefore exposed to the extracellular matrix.
A highly specific monoclonal antibody (mAb) recognizing the high affinity IgE binding receptor (FcεRI) is used as a positive control, leading to the activation of the basophils by mimicking the bridging event.
After stopping the reaction the Staining Reagent is added containing a mixture of monoclonal antibodies to human CD63 labeled with phycoerythrin (anti-CD63-PE) and to human IgE labeled with fluorescein isothiocyanate (anti-IgE-FITC). The remaining erythrocytes are removed by a lysing reaction and after blocking the reaction the cells are analyzed by flow cytometry.
Mix the anti-coagulated blood sample by inverting the venipuncture tube several times. Centrifuge the venipuncture tube for 5 minutes at 200×g. After the centrifugation step, two phases can be observed from top to the bottom of the tube: • i) plasma fraction containing the leukocytes • ii) erythrocyte fraction • Alternative procedure for cell separation: • Mix the anti-coagulated blood sample by inverting the venipuncture tube several times. • Let the samples sediment (erythrocytes) at room temperature for one hour. Collect the upper phase (plasma fraction containing the leukocytes) and continue with step 2. • If the erythrocytes sedimentation is not complete after one hour of incubation, the centrifugation step above is recommended. • 2. Collect the plasma fraction with the leukocytes on the top of the erythrocytes with a disposable plastic syringe or plastic pipette and transfer it into a fresh and pyrogen-free 5 ml polypropylene or polystyrene tube. • NOTE: Because of the low amount of basophils in the leukocyte fraction it is important to collect the entire plasma fraction. […] Centrifuge for 10 minutes at 500×g. Completely remove the plasma fraction on the top of the cell pellet with a pipette. • 4. Add 100 μl of Stimulation Buffer per ml of blood used at the beginning (i.e. for 5 ml blood sample used, the pellet has to be solved with 500 μl of Stimulation Buffer). Resuspend the leukocytes pellet carefully. • 5a. For each patient, label pyrogen-free polystyrene tubes suited for Flow Cytometry measurements (e.g., PB=patient background=negative control, PC=stimulation control with anti-FcεRI Ab, A1-1 for antigen 1 with dilution 1, A1-2 for allergen 1 with dilution 2, etc.) or use tissue culture grade microtiter plates. • 5b. Pipet 50 μl of Stimulation Buffer (background 0 negative control) into the PB tube of each patient. • 5c. Pipet 50 μl of Stimulation Control into the PC tube of each patient. • 5d. Pipet 50 μl of Allergen (=test substance) into the corresponding patient tubes. • 6. Pipet 50 μl of each patient's cell suspension into the corresponding tubes. • 7. Vortex gently, cover the tubes and incubate for 40±5 minutes at 37° C. in a water bath. • 8. Add 50 μl of cold Blocking Buffer to each tube. • 9. Add 20 μl of cold Staining Reagent to each tube. Vortex gently. • 10. Incubate for 30±5 minutes at 2-8° C. • 11. Vortex gently the sedimented cells, add 3.5 ml of pre-warmed (18-28° C.) Lysing Reagent to each tube and incubate for 5±1 minutes at 18-28° C. • 12. Stop the reaction with 1 ml of Blocking Buffer. • 13. Centrifuge for 5 minutes at 1000-1200×g. • 14. Decant or aspirate the supernatant and resuspend the cell pellet with 500 μl of Blocking Buffer. Vortex gently. • 15. Proceed to the analysis by Flow Cytometry within 2 hours.
Flow cytometric analysis can be performed on any flow cytometer containing a 488 nm argon laser (blue-green excitation light) and the corresponding software.

basophilic cells = settings: for MFI-CCR3 shift (cytotoxic concentration): human
Description: In Protocol 1 anti-IgE-FITC is used as the basophil selection marker, whereas in Protocol 2 anti-CCR3-PE is used.

basophils [2] = experiment: Alternative use of FcεRI instead of IgE as basophil selection/activation marker (Example 7); type: cell-based, human; settings: for MFI Activation Index (anti-FcεRI-AF647 and anti-IgE-AF647): Amoxicillin allergic patient
blood basophils = settings: 21 normal blood donors
Method: Therefore, we established two protocols, one with diluted whole blood, wherein the EDTA blood sample is diluted 1 in 4 with cellular incubation buffer (the Stimulation Buffer) and another with purified blood, wherein the basophils were transferred from its plasma matrix to a plasma-free matrix such as the cellular incubation buffer by centrifuging and washing the blood cells.

## CC1(C)S[C@@H]2[C@H](NC(=O)[C@H](N)c3ccc(O)cc3)C(=O)N2[C@H]1C(=O)O [Amoxicillin]
Basophils [1]; Patient 4 (control subject)
  result of all methods tested (CD63 expression, combined Activation Index, spIgE, skin test): negative result
Basophils [1]; Patient 5
  combined MFI-IgE/CD63 Activation Index: positive result
Basophils [1]; Patient 5, cutoff 5% plus SI≧2
  CD63 expression: negative
Basophilic cells; 2 mg/ml, CCR3 selection marker
  CCR3 positive cells after stimulation: can still be easily identified
Basophilic cells; 2 mg/ml, IgE selection marker
  IgE positive basophilic cells after stimulation: disappearing
Basophils [2]; 0.04 mg/ml (C3)
  MFI Activation Index (anti-FcεRI-AF647 and anti-IgE-AF647): negative
Basophils [2]; 0.2 mg/ml (C2)
  MFI Activation Index (anti-FcεRI-AF647 and anti-IgE-AF647): intermediate
Basophils [2]; 1 mg/ml (C1)
  MFI Activation Index (anti-FcεRI-AF647 and anti-IgE-AF647): strong activation

## CC(=O)Oc1ccccc1C(=O)O [Aspirin]
Basophils [1]; Patient 8
  combined MFI-IgE/CD63 Activation Index: positive results
Basophils [1]; Patient 9
  CD63 expression: clearcut reaction
  combined MFI-IgE/CD63 Activation Index: clearcut reaction
Basophilic cells; 5 mg/ml
  MFI-CCR3 shift (cytotoxic concentration): clearcut downregulation of MFI-CCR3

## O=C(O)Cc1ccccc1Nc1c(Cl)cccc1Cl [Diclofenac]
Basophils [1]; Patient 9
  CD63 expression: clearcut reaction
  combined MFI-IgE/CD63 Activation Index: clearcut reaction

## CC(C)Cc1ccc(C(C)C(=O)O)cc1 (stereo not shown) [Ibuprofen]
Basophils [1]; Patient 8
  combined MFI-IgE/CD63 Activation Index: positive results
Basophils [1]; Patient 9
  CD63 expression: clearcut reaction
  combined MFI-IgE/CD63 Activation Index: clearcut reaction

## COc1ccc2cc([C@H](C)C(=O)O)ccc2c1 [Naproxen]
Basophilic cells; 1 mg/ml
  MFI-CCR3 shift (cytotoxic concentration): clearcut downregulation of MFI-CCR3
Basophilic cells; 5 mg/ml
  MFI-CCR3 shift (cytotoxic concentration): clearcut downregulation of MFI-CCR3
Blood basophils; 1 mg/ml, washed blood cells
  unspecific stimulatory effects on basophils: unspecific stimulatory effects
Blood basophils; 5 mg/ml, all blood preparation methods
  cytotoxic effects on blood basophils: cytotoxic effects

## CSCC[C@H](NC=O)C(=O)N[C@@H](CC(C)C)C(=O)N[C@@H](Cc1ccccc1)C(=O)O [fMLP, N-formyl-L-methionyl-L-leucyl-L-phenylalanine]
Basophils [2]; compared with anti-FcεRI mAb
  stimulation yield as alternative positive control: lower stimulation yields than anti-FcεRI mAb
